Active and inactive are the calls of the source. No rule for the calls is given here.
Target: 3C-like protease (3CLpro), SARS coronavirus (filed as Infectious bronchitis virus)
Test: PubChem AID 602486
Conditions: recombinant 3CLpro, fluorogenic peptide cleavage

SMILES: CC(=O)Nc1ccc(N(C(=O)Cn2cc(-c3ccccc3)nn2)C(C(=O)NC(C)(C)C)c2ccsc2)cc1 (stereo unspecified)
- IC50: inactive
